In patent publication EP0902002A1, “New derivatives of phthalaldehyde, process for their preparation and their use” (Hoechst Marion Roussel Deutschland GmbH, priority 1997, dated 1999) one finds Löslichkeit and Stabilität data, which are given here for 1 compound.

Each structure is given as a SMILES string.

This data set is described as follows: Physicochemical properties: solubility and pH stability.

Take `CC(CCc1c(O)cc(C=O)c(C=O)c1O)C(=O)O` (stereo not drawn) [Hericenal C]: the Löslichkeit entry (in Alkoholen und anderen polaren organischen Lösungsmitteln) was “lösliche”. The Stabilität result (in neutralem und mild saurem Milieu (vorzugsweise > pH 2)) is listed as “stabil” and the Stabilität result (in stark alkalischer Lösung (beispielsweise > pH 8)) was “unbeständig”.
